We go through 9 molecules from PubChem BioAssay (NCI).

Some test systems named below: HOP-62 NSCLC; KM12 colon; OVCAR-5 ovarian; UACC-62 melanoma; SK-MEL-2 melanoma; BT-549 breast; PC-3 prostate; TK-10 renal; OVCAR-8 ovarian; SNB-19 CNS.
Common to all, as to experiment: DTP human tumour cell line panel, 48 h

Each structure is given as a SMILES string.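 Dose response: 5 concentrations. Exposure: 48 h. Format: 96-well plates. Endpoint: linear interpolation; highest concentration if not reached. Abbreviation: GI50, concentration required for 50% inhibition of growth. At the TGI there is no net growth.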 Some results are limits rather than exact numbers.

`OCCCCC#Cc1ccccc1C#Cc1ccccc1C(F)(F)F`: the GI50 (as a rule, the concentration at which growth is held to half of that of the control) with HOP-62 NSCLC was 8.46 µM; with KM12 colon it was 3.57 µM; in the assay with OVCAR-5 ovarian it was 14.7 µM; with UACC-62 melanoma it was 11.3 µM; with SK-MEL-2 melanoma, 15.6 µM; with BT-549 breast it was 17.1 µM. Moreover, the GI50 in the assay with PC-3 prostate was 8.77 µM; with TK-10 renal, 18.6 µM; in the assay on OVCAR-8 ovarian, 13.3 µM; in the assay on SNB-19 CNS, 18 µM. The total growth inhibition concentration (TGI) (usually the concentration at which net growth stops) in the assay with HOP-62 NSCLC is greater than 100 µM; in the assay with KM12 colon, 16.7 µM; with OVCAR-5 ovarian it was 30.8 µM; in the assay with UACC-62 melanoma it was 23.5 µM; in the assay on SK-MEL-2 melanoma, 32.6 µM; in the assay on BT-549 breast, 31.7 µM. In addition, the total growth inhibition concentration (TGI) came out at 21 µM with PC-3 prostate, 47.1 µM in the assay with TK-10 renal, 31.6 µM with OVCAR-8 ovarian and 34.3 µM in the assay with SNB-19 CNS.
On to `S=C(Nc1ccc(Cl)cc1)Nc1ccc(-c2nc3ccccc3[nH]2)cc1`, for which the GI50 was 15 µM in the assay on HOP-62 NSCLC; 4.45 µM in the assay with KM12 colon; 20.4 µM in the assay with OVCAR-5 ovarian; 5.15 µM in the assay on UACC-62 melanoma; 19.1 µM in the assay on BT-549 breast; 5.37 µM in the assay on PC-3 prostate. Further, the GI50 is 7.73 µM in the assay with TK-10 renal, 14.3 µM in the assay with OVCAR-8 ovarian and 9.29 µM in the assay on SNB-19 CNS. For the same molecule, the TGI in the assay on HOP-62 NSCLC was 30 µM; with KM12 colon, greater than 62 µM; in the assay on OVCAR-5 ovarian it was 40.8 µM; in the assay with UACC-62 melanoma, 14.8 µM; in the assay with BT-549 breast it was 53.1 µM; in the assay on PC-3 prostate, 35.8 µM. Further, the TGI with TK-10 renal was 36.1 µM; with OVCAR-8 ovarian it was greater than 59.7 µM; in the assay with SNB-19 CNS it was 36.5 µM.
Take `Cc1nc2cccc(NCc3ccc(C(=O)NO)cc3)c2c(=O)n1-c1ccccc1`: the GI50 with HOP-62 NSCLC was 1.65 µM; with KM12 colon it was 1.8 µM; in the assay with OVCAR-5 ovarian, 2.13 µM; with SK-MEL-2 melanoma, 2.36 µM; in the assay on BT-549 breast, 2.8 µM; in the assay with PC-3 prostate, 1.9 µM. Besides, the GI50 with TK-10 renal is 1.76 µM; in the assay on OVCAR-8 ovarian, 1.52 µM; in the assay on SNB-19 CNS, 1.92 µM. Besides, the total growth inhibition concentration (TGI) in the assay on HOP-62 NSCLC stood at 4.47 µM; in the assay with KM12 colon it was 3.59 µM; with OVCAR-5 ovarian, 6.75 µM; in the assay with SK-MEL-2 melanoma, 5.12 µM; with BT-549 breast it was 8.1 µM; in the assay on PC-3 prostate it was 6.14 µM. In addition, the concentration for total growth inhibition (TGI) in the assay with TK-10 renal was determined as 6.07 µM; with OVCAR-8 ovarian, 3.75 µM; in the assay with SNB-19 CNS, 4.56 µM.
As to `Nc1ccccc1C#C/C=C\C#Cc1ccc(Cl)cc1Cl`, the GI50 in the assay on HOP-62 NSCLC was 16.6 µM; in the assay with KM12 colon, 2.72 µM; in the assay with OVCAR-5 ovarian, 13.8 µM; in the assay on UACC-62 melanoma, 14.5 µM; in the assay with SK-MEL-2 melanoma it was 25 µM; in the assay with BT-549 breast, 12.4 µM. For the same molecule, the GI50 with PC-3 prostate was 9.04 µM; in the assay on TK-10 renal, 11.6 µM; in the assay on OVCAR-8 ovarian, 19.1 µM. The total growth inhibition concentration (TGI) with HOP-62 NSCLC came out at 32.8 µM; with KM12 colon it was 14.4 µM; in the assay with OVCAR-5 ovarian it was 28.7 µM; in the assay with UACC-62 melanoma it was 31.7 µM; with SK-MEL-2 melanoma it was 70.1 µM; in the assay on BT-549 breast, 28.7 µM. In addition, the TGI was 42.1 µM in the assay with PC-3 prostate, 26.8 µM with TK-10 renal and 41.5 µM in the assay on OVCAR-8 ovarian.
As to `COc1cc(/C=C/C(=O)c2ccc(Cl)cc2)ccc1OS(=O)(=O)c1ccc(C)cc1`, the GI50 in the assay on HOP-62 NSCLC is 30 µM; in the assay on KM12 colon it was 3.63 µM; in the assay on OVCAR-5 ovarian it was 16.7 µM; in the assay on UACC-62 melanoma, 4.93 µM; in the assay on SK-MEL-2 melanoma, 12.3 µM; in the assay with BT-549 breast, 5.64 µM. Besides, the figures for the GI50 in the assay with PC-3 prostate, with OVCAR-8 ovarian and in the assay on SNB-19 CNS were 3.6 µM, 3.23 µM and 9.53 µM, respectively. The TGI with HOP-62 NSCLC worked out at 92 µM; in the assay with KM12 colon, 13.8 µM; in the assay on OVCAR-5 ovarian, 33.2 µM; in the assay with UACC-62 melanoma, 20.3 µM; in the assay on SK-MEL-2 melanoma, 28.8 µM; in the assay on BT-549 breast, 18.7 µM. For the same molecule, the total growth inhibition concentration (TGI) in the assay with PC-3 prostate was found to be 15.5 µM; in the assay with OVCAR-8 ovarian, 16 µM; in the assay with SNB-19 CNS, 23.2 µM.
Consider `CC(C)(O)C1OCC(C2CCC3(C)C4=CCC5C(C)(C)C(O)CCC5(C)C4CCC23C)CC1O` (stereo not given), for which the total growth inhibition concentration (TGI) worked out at 27 µM in the assay with KM12 colon; 39.6 µM in the assay on OVCAR-5 ovarian; 29.5 µM with UACC-62 melanoma; 48.7 µM with SK-MEL-2 melanoma; 24.8 µM in the assay on BT-549 breast; 26.7 µM in the assay on PC-3 prostate. In addition, the TGI is 25.9 µM in the assay on TK-10 renal, 27.9 µM with OVCAR-8 ovarian and 36.9 µM in the assay with SNB-19 CNS.
On to `Cc1cc(S(=O)(=O)Nc2nnc(-c3ccccc3)c(-c3ccccc3)n2)c(SCc2ccccc2)cc1Cl`, for which the GI50 in the assay with HOP-62 NSCLC is 22.9 µM; in the assay on KM12 colon it was 18.5 µM; with OVCAR-5 ovarian, 24.8 µM; in the assay with UACC-62 melanoma, 16.1 µM; with BT-549 breast, 18.9 µM; in the assay with PC-3 prostate, 21.2 µM. Further, the GI50 in the assay with TK-10 renal was 17.6 µM; in the assay with OVCAR-8 ovarian it was 27.2 µM; in the assay on SNB-19 CNS, 25.7 µM. For the same molecule, the TGI in the assay with HOP-62 NSCLC came out at 39.6 µM; with KM12 colon, 43.1 µM; in the assay on OVCAR-5 ovarian, 50.3 µM; with UACC-62 melanoma, 30.9 µM; in the assay on BT-549 breast it was 41.8 µM; in the assay with PC-3 prostate, 58 µM. Further, the TGI in the assay on TK-10 renal was 36.1 µM; in the assay with OVCAR-8 ovarian it was 89.7 µM; in the assay on SNB-19 CNS, 52.7 µM.
For `CC(=O)OC(C)(C)/C=C/C(=O)[C@](C)(O)[C@H]1[C@H](O)C[C@@]2(C)[C@@H]3CC=C4[C@@H](C[C@H](O)C(=O)C4(C)C)[C@]3(C)C(=O)C[C@]12C`, the TGI with KM12 colon is 13.6 µM; with OVCAR-5 ovarian, 13.8 µM; with UACC-62 melanoma, 2.17 µM; in the assay on SK-MEL-2 melanoma, less than 0.01 µM; in the assay with BT-549 breast, 0.0201 µM; with TK-10 renal it was less than 0.01 µM. The concentration for total growth inhibition (TGI) in the assay on OVCAR-8 ovarian was 5.8 µM; in the assay with SNB-19 CNS, 0.153 µM.
For the molecule `S=C(N/N=C/c1ccccn1)Nc1ccccn1`, the GI50 with HOP-62 NSCLC is 1.73 µM; in the assay on KM12 colon, 2.87 µM; in the assay with OVCAR-5 ovarian, 3.86 µM; with SK-MEL-2 melanoma, 2.35 µM; in the assay with BT-549 breast, 1.99 µM; in the assay with PC-3 prostate, 1.46 µM. Further, the GI50 was 2.93 µM in the assay with TK-10 renal, 0.671 µM in the assay with OVCAR-8 ovarian and 2.16 µM in the assay on SNB-19 CNS. Also, the TGI with HOP-62 NSCLC was 9.22 µM; in the assay with KM12 colon it was greater than 100 µM; with OVCAR-5 ovarian it was greater than 100 µM; in the assay with SK-MEL-2 melanoma, 9.74 µM; with BT-549 breast it was greater than 100 µM; in the assay with PC-3 prostate, greater than 100 µM. Moreover, the total growth inhibition concentration (TGI) in the assay with TK-10 renal, with OVCAR-8 ovarian and with SNB-19 CNS was greater than 100 µM throughout.
